{"source": "patent US9079821B2", "about": "“Quinone based nitric oxide donating compounds” (NICOX S.A., priority 2011, dated 2015)", "key": {"[1]": {"test_system": "methoxamine-precontracted rabbit aortic rings", "experiment": "In vitro NO-mediated vasorelaxation", "assay_type": "cell-based", "protocol": "The ability of compound (6) disclosed in example 1, to induce in vitro vasorelaxation, which is a functional marker of NO release, was assessed on methoxamine-precontracted rabbit aortic rings.\n(§1) Thoracic aortas from male New Zealand rabbits or male Sprague Dawley (SD) were used. The aortas were placed immediately in Krebs-HEPES buffer (pH 7.4; composition mM: NaCl 130.0, KCl 3.7, NaHCO3 14.9, KH2PO4 1.2, MgSO4.7H2O 1.2, Glucose 11.0, HEPES 10.0, CaCl2.2H2O 1.6). Connective tissue was removed and aortas were cut into ring segments (4-5 mm in length). Each ring was placed in a 5 mL tissue bath filled with Krebs-HEPES buffer (37° C.) aerated with 95% O2 and 5% CO2 and was attached to a force transducer (Grass FT03), connected to a BIOPAC MP150 System for measurement of the isometric tension. Preparations were allowed to equilibrate for 1 h at a resting tension of 2 g for rabbit aortas and 1 g for rat aortas with changes of the buffer every 15 min. Then the rings were stimulated by exposure to 90 mM KCl (3 times) with intervening washings.\nRabbit aorta. […]\nData analysis. […] Vascular responses are expressed as percentage relaxation and plotted vs concentration. […] Responses are quantified in terms of EC50 and Emax (maximal vasodilating effect) values, obtained from the concentration-response curve by nonlinear curve fitting, using GraphPad software."}, "[2]": {"test_system": "isolated aortas from rats", "experiment": "Ex vivo tolerance evaluation (vascular response of isolated aortas from treated rats)", "assay_type": "in vivo, rat", "details": "for EC50 at 100 mg/kg: Rattus norvegicus, vascular response to Compound (6), 3 h after last administration", "protocol": "as §1\n(§2) Rat aorta. After equilibration, rat aortas were precontracted with KCl (90 mM) and, when the contraction was stable, a cumulative concentration-response curve to acetylcholine (ACh, 0.01-100 μM) was added. After washout, the rings were precontracted again with KCl (90 mM). When a steady-state level of contraction was obtained, a cumulative concentration-response curve to the tested compounds (0.01-100 μM) was obtained.\n(§3) Data analysis. Results are given as mean±SEM. Vascular responses are expressed as percentage relaxation and plotted vs concentration. The sensitivity of isolated aorta to different vasodilators is expressed as the concentration that elicited 50% of the maximal responses (EC50). Responses are quantified in terms of EC50 and Emax (maximal vasodilating effect) values, obtained from the concentration-response curve by nonlinear curve fitting, using GraphPad software.\nTolerance to nitrate was further investigated assessing the vascular effects of Compound (6) following repeated treatment compared with 5-ISMN. The vascular response to the compound itself was assessed on isolated aortas from rats orally treated for 5 days with Compound (6) (100 mg/kg). The vascular response was performed as described in Example 6.\nVascular responses were performed 1 h (ISMN) or 3 h (Compound (6)) after the last administration, the concentrations of tested compound that elicited the 50% of the maximal responses (EC50) are shown in Table 4."}, "[3]": {"test_system": "rat aorta, endothelial-dependent vasodilation (response to ACh)", "experiment": "Endothelial dysfunction evaluation (vascular response to acetylcholine after treatment)", "assay_type": "in vivo", "details": "for Emax at 100 mg/kg: Rattus norvegicus, response to ACh, read-out: % relaxation (Emax)", "protocol": "as §1, §2, §3\nEndothelial-dependent vasodilation (vascular response to acetylcholine, ACh) was assessed following 5-day treatment with Compound (6) (100 mg/kg) or 5-ISMN (30 mg/kg). A relaxant response to ACh indicated the presence of a functional endothelium. The vascular response was performed as described in Example 6."}}, "note": "Read-outs that look alike come from different tables or passages of the source.", "data": [{"smiles": "COC1=C(OC)C(=O)C(CCCCCCCCCCO[N+](=O)[O-])=C(C)C1=O", "note": "[Compound (6), 10-(4,5-dimethoxy-2-methyl-3,6-dioxocyclohexa-1,4-dienyl)decyl nitrate]", "values": [{"measurement": "relaxation at the highest concentration tested", "setting": "[1]; 100 μM", "value": "89±1", "unit": "%"}, {"measurement": "EC50", "setting": "[1]; Oryctolagus cuniculus, methoxamine (3 μM) precontracted, functional endothelium, read-out: EC50 (concentration-dependent relaxation)", "value": "4700 ± 200", "unit": "nM"}, {"measurement": "EC50 at 100 mg/kg", "setting": "[2]; acute, aortas of rats given Compound (6) 100 mg/kg", "value": "110 ± 20", "unit": "nM"}, {"measurement": "EC50 at 100 mg/kg", "setting": "[2]; repeated (5 days oral) Compound (6) 100 mg/kg", "value": "180 ± 20", "unit": "nM"}, {"measurement": "vascular response of aortas from treated animals vs vehicle arteries, in words", "setting": "[2]; compound (6) 100 mg/kg oral, 5 days", "value": "showed the same sensitivity to Compound (6) as those arteries of animals treated only with vehicle"}, {"measurement": "effect on endothelial-dependent vasorelaxation, in words", "setting": "[3]; Compound (6) 100 mg/kg, 5-day treatment", "value": "did not modify endothelial-dependent vasorelaxation"}, {"measurement": "Emax at 100 mg/kg", "setting": "[3]; 120 h, repeated (5-day) Comp. (6) 100 mg/kg", "value": "84.3 ± 7.5", "unit": "%"}, {"measurement": "Emax at 100 mg/kg", "setting": "[3]; acute, Comp. (6) 100 mg/kg", "value": "89.6 ± 4.5", "unit": "%"}]}]}
